Results published in patent publication US6762052B1, “DNA sequence encoding flavin-containing monooxygenase” (priority 1993, dated 2004).
Converted amounts (≈) assume the structure as drawn. Like-named read-outs stand apart in the source and are kept apart here.

How the values were obtained:
pig liver FMO form I = molecular target: T1, pig liver FMO form I (Sus scrofa, UniProt P16549); conditions: cited from earlier work
T1 sequence (P16549 1-532): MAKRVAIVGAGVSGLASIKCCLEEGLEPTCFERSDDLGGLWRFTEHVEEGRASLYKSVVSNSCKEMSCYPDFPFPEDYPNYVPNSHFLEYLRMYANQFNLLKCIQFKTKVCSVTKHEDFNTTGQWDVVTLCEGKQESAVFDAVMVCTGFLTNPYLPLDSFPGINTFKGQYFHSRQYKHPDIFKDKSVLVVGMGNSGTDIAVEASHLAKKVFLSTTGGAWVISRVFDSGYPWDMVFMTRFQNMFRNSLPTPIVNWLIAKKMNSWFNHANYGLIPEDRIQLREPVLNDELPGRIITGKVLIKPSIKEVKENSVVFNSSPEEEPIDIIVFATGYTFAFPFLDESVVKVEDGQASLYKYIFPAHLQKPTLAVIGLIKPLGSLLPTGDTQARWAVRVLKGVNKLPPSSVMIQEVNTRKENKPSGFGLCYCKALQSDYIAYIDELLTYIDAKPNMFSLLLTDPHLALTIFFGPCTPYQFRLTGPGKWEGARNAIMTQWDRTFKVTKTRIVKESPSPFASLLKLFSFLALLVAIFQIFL

human FMO3 = human FMO3 (Homo sapiens, UniProt P31513); conditions: in vitro; cited from earlier work
Chain of human FMO3 (P31513 whole entry): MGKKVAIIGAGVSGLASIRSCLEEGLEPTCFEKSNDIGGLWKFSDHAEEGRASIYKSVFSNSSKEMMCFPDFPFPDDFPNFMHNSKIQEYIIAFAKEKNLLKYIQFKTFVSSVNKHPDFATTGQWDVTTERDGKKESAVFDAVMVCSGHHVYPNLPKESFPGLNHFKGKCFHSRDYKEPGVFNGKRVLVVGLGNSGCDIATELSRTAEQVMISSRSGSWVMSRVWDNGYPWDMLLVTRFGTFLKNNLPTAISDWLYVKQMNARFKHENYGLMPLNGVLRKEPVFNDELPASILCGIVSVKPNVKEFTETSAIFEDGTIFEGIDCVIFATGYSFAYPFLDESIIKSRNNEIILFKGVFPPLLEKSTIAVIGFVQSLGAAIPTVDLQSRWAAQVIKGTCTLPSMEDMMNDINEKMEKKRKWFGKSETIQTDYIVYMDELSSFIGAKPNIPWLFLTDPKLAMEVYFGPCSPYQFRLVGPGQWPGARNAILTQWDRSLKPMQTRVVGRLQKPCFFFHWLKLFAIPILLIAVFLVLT

[1] = tested on: E. coli strains that contained FMO3 cDNA; assay: Agar plate growth in the presence of difloxacin, strains with FMO3 cDNA; format: cell-based; conditions: same conditions (0.25 microgram/mL)
From the text: (§1) To validate the observations made in liquid culture, agar plate experiments were done in the presence of difloxacin with different strains streaked out containing different FMO cDNAs.

NM522 E. coli = assay: Bactericidal action / cytotoxicity in liquid culture
[2] = tested on: E. coli containing FMO1 cDNA plasmid; assay: Agar plate growth in the presence of difloxacin, strain with FMO1 plasmid; format: cell-based; conditions: 0.25 microgram/mL
From the text: as §1

lys158-HFMO3-MBP = molecular target: T2, lys158-HFMO3-MBP (Homo sapiens, UniProt P31513, E158K); assay: Substrate oxygenation by lys158-HFMO3-MBP fusion protein, HPLC; conditions: Lys 158 variant
T2 sequence (P31513 2-532 E158K): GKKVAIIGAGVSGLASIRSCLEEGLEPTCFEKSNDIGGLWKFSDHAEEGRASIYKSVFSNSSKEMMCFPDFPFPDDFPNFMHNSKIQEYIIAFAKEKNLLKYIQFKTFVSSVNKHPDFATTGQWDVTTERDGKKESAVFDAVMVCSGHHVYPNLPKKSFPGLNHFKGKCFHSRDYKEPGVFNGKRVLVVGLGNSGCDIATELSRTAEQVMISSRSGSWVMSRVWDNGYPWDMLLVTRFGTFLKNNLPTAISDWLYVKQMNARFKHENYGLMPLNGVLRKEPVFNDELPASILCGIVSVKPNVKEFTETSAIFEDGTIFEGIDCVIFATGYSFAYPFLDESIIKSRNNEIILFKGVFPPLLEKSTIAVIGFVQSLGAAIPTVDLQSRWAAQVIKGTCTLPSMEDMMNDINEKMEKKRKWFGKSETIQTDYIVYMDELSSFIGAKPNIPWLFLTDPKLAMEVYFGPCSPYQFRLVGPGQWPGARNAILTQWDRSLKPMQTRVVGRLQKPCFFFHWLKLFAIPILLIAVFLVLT
Experimental: For HFMO3-MBP assay, all HFMO3-MBP incubations were done as follows: Into a test tube was added DETAPAC (1.2 mM, final concentration for a 250 μl reaction) followed by the addition of 60 μl NADPH generating system (0.4 mM NADP, 0.4 mM glucose-6-phosphate, and 20 μl of a 50 units mI^−1 glucose-6-phosphate dehydrogenase). The tube was chilled on ice and buffer and enzyme were added as described below for individual experiments to give a volume of 240 μl. The incubation was initiated by the addition of 5-DTP (10 μl of 5 mM) and placed in a shaking water bath at 37° C. for 10 min (unless specified otherwise). The incubation was stopped by the addition of 1.0 ml of ice-cold CH2Cl2. Following the addition of sodium carbonate (approx. 20 mg), the culture tube was vortexed, centrifuged (2000×g, 10 min), and the organic layer was removed and transferred to a 1.5 ml microfuge tube. The organic solvent was evaporated under a stream of Ar(g) to dryness and the residue was taken up in MeOH (300 μl) for determination HPLC analysis.
Data was analyzed with a Hitachi D-2500 integrator.
MTS-oxygenation assays were carried out under the same buffer, temperature, time and volume conditions, as for the N-oxygenation assays. The reactions were initiated upon addition of 10 μl of a 5 mM solution of MTS. The reaction was quenched with the addition of 700 μl of 80% CH3CN:20% hexane then 20 mg NaCl(s) and vortexed vigorously for 10 sec. The quenched reactions were then centrifuged briefly to separate the phases. The organic layer, containing product and substrate, was removed and used directly for HPLC analysis.
All other instruments used were the same as above for the N-oxygenation reactions. Conditions for elution were 50% CH3CN/H2O (v:v) with a flow rate gradient as follows: 1.5 ml min^−1 from 0 to 4 min., 1.5-2.5 ml min^−1 from 4 to 5 min, 2.5 ml min^−1 from 5 to 15 min.
Trimethylamine is commonly ingested in foodstuffs or it is available in the diet of humans from choline and other sources. Trimethylamine (TMA) is exclusively eliminated in humans by metabolism to trimethylamine N-oxide (TMANO). […] Thus, urinary TMANO formation provides a simple, reliable and direct assay of FMO3 activity in adult humans. Analysis of TMA to TMANO ratios provides a direct means of phenotyping adult humans for FMO3 activity. Phenotyping FMO3 activity in humans would provide a simple means of evaluating the relationship between the presence of FMO3 and various disease conditions. […]

[3] = normal humans, dietary sources or otherwise; cited from earlier work
[4] = tested on: human FMO3-maltose binding protein (FMO3-MBP); assay: Sequential N-oxygenation of primary amines to oximes by cDNA-expressed human FMO3-MBP; format: in vitro ADME
From the text: The cDNA-expressed human FMO3-maltose binding protein (FMO3-MBP) efficiently catalyzes the sequential N-oxygenation of primary amines to oximes through the intermediacy of hydroxylamines. […] In addition, formation was not dependent on autoxidation of hydroxylamines or generation of oxygen radical species. Thus, […] and O2^− had virtually no effect on the formation of oxime from the primary hydroxylamine. […] This represents a fundamental difference between FMO3 and other FMOs and indicates a use of FMO3 as a stereoselective catalyst in the formation of precious chemicals or hard to form metabolites having great stereochemical purity.

Human Liver Microsomes = assay: N- and S-oxygenation of substrates by adult human liver microsomes, products quantified by HPLC
Experimental: In all cases examined, product formation was directly determined by HPLC analysis of organic extracts.
Human liver samples were obtained from the Department of Surgery (UCSF) and with a protocol from the Medical College of Wisconsin (S. Wrighton).
A typical incubation mixture (final volume 0.25 ml) contained hepatic microsomes (0.4 mg of protein) or bacterial lysate (2.3 mg of protein), NADP^+ (0.5 mM), glucose-6-phosphate (2.0 mM), glucose-6-phosphate dehydrogenase (1 IU), DETAPAC (0.8 mM) and potassium phosphate buffer (50 mM, pH 8.4). Reactions were initiated by the addition of substrate and terminated at designated times by the addition of three volumes of cold dichloromethane, mixed thoroughly and centrifuged to separate the aqueous and organic fractions. N- and S-oxide metabolic products in the resulting organic extracts were separated and quantified by HPLC. […] Thiobenzamide and thiobenzamide S-oxide were quantified with this same, HPLC system employing a mobile phase of methanol/acetonitrile/60% perchloric acid (20:80:0.016, v/v) which gave retention volumes of 2.7 and 7.0 ml, respectively. […] The major metabolites formed in the incubations were also subjected to mass spectral analysis after extraction of isolated HPLC fractions.
RPLC of the S-oxide diastereomers with a Chiracel OT chiral analytical column (25 cm×0.15 cm inner diameter, Daicel Chemical Co., New York, N.Y.) was accomplished with a Beckman system, Kratos UV detector (240 nm) and a Hewlett Packard Integrator. […] Quantification was accomplished by comparing integrated HPLC peak areas after taking into account the difference in the extinction coefficients at 240 nm. Likewise, the cis and trans S-oxide diasteromers of (+)- and (−)-2-methyl-1,-benzodithiole were separated with a Chiracel OT chiral analytical column.

not read = substrate: CN(C)C; assay: not read; conditions: other: Lys 158 variant; evaporative light scattering HPLC detection; 37.0 °C
Experimental: This HPLC system efficiently resolved the 5-DTP substrate from the N-oxide product with retention times of 5.30 min and 4.30 min, respectively.
MTS-oxygenation assays were carried out under the same buffer, temperature, time and volume conditions, as for the N-oxygenation assays. The reactions were initiated upon addition of 10 μl of a 5 mM solution of MTS. […]

[5] = substrate: NC(=S)c1ccccc1; assay: cells, lysate or membranes named; conditions: other: N- or S-oxide formation; for the 4-bromophenyl-1,3-oxathiolanes formation of the trans S-oxide; pH 8.4; 37.0 °C
Experimental: Competent NM522 Escherichia coli cells were transformed with the pTrc HLFMO 3 plasmid. […] After inoculation with a fresh overnight culture of NM522 containing pTrcHLFMO 3, the culture was grown at 37° C. until Abs600 was approximately 0.5 absorbance units. Finally, IPTG (0.8 mM) was added to the culture to induce expression of protein and the culture was left to grow overnight at 37° C.
The bacterial pellet was resuspended in 5 volumes of 50 mM potassium phosphate buffer (pH 8.4) containing 1% Triton X-100, 0.1% L-, α-phosphatidylcholine (L-α-lecithin) from egg yolk, 500 μM PMSF, and 1 mM EDTA. The mixture was sonicated and then centrifuged to remove cellular debris. […]

Molecule: CN(C)CCCN1c2ccccc2CCc2ccccc21 [imipramine]
- substrate activity, in words (pig liver FMO form I): excellent substrate

Molecule: CN1CCC[C@H]1c1cccnc1 [(S)-nicotine]
- N-1'-oxide product stereoselectivity (human FMO3): exclusively converted to trans (S)-nicotine N-1′-oxide

Molecule: CN1CCN(c2cc3c(cc2F)c(=O)c(C(=O)O)cn3-c2ccc(F)cc2)CC1 [difloxacin]
- sensitivity of strains containing FMO3 cDNA to the antibiotic [1]: much more sensitive
- EC50 (NM522 E. coli; Escherichia coli, read-out: bactericidal action EC50): ~5 µg/mL (≈ 12.5 µM)
- effect of FMO1 plasmid on growth in the presence of the antibiotic [2]: conferred resistance

Molecule: CN(C)C [TMA, trimethylamine]
- Vmax of N-oxygenation to TMANO (lys158-HFMO3-MBP): 3.8 nmol of TMANO formed/min/mg of protein
- dose converted to TMANO that is excreted in the urine [3]: over 95%

Molecule: NCCc1ccccc1 [phenethylamine]
- oxime formation from primary amine, product stereoselectivity ([4]; cDNA-expressed human FMO3-MBP): stereoselectively converted to trans oximes
- oxime formation from primary amine, product stereoselectivity (Human Liver Microsomes; adult human liver microsomes, NADPH-dependent): stereoselectively converted to trans oximes

Molecule: CCCCCCCCNN1c2ccccc2Sc2ccc(C(F)(F)F)cc21 [10-(N-n-octylamino)-2-(trifluoromethyl)phenothiazine]
- oxime formation from primary amine, product stereoselectivity [4]: stereoselectively converted to the cis oxime
- oxime formation from primary amine, product stereoselectivity (Human Liver Microsomes): stereoslectively converted to the cis oxime

Molecule: C[N+]1([O-])CCN(c2cc3c(cc2F)c(=O)c(C(=O)O)cn3-c2ccc(F)cc2)CC1 [difloxacin terminal tertiary amine N-oxide]
- cytotoxicity (NM522 E. coli; 50 or 100 micrograms per mL): not significantly cytotoxic

B1: lys158-HFMO3-MBP (Homo sapiens; E158K) (protein)
chain: GKKVAIIGAGVSGLASIRSCLEEGLEPTCFEKSNDIGGLWKFSDHAEEGRASIYKSVFSNSSKEMMCFPDFPFPDDFPNFMHNSKIQEYIIAFAKEKNLLKYIQFKTFVSSVNKHPDFATTGQWDVTTERDGKKESAVFDAVMVCSGHHVYPNLPKKSFPGLNHFKGKCFHSRDYKEPGVFNGKRVLVVGLGNSGCDIATELSRTAEQVMISSRSGSWVMSRVWDNGYPWDMLLVTRFGTFLKNNLPTAISDWLYVKQMNARFKHENYGLMPLNGVLRKEPVFNDELPASILCGIVSVKPNVKEFTETSAIFEDGTIFEGIDCVIFATGYSFAYPFLDESIIKSRNNEIILFKGVFPPLLEKSTIAVIGFVQSLGAAIPTVDLQSRWAAQVIKGTCTLPSMEDMMNDINEKMEKKRKWFGKSETIQTDYIVYMDELSSFIGAKPNIPWLFLTDPKLAMEVYFGPCSPYQFRLVGPGQWPGARNAILTQWDRSLKPMQTRVVGRLQKPCFFFHWLKLFAIPILLIAVFLVLT
- Km (not read): 634 µM

B2: adult human liver flavin-containing monooxygenase (form 3) (Homo sapiens; E158K) (protein)
chain: MGKKVAIIGAGVSGLASIRSCLEEGLEPTCFEKSNDIGGLWKFSDHAEEGRASIYKSVFSNSSKEMMCFPDFPFPDDFPNFMHNSKIQEYIIAFAKEKNLLKYIQFKTFVSSVNKHPDFATTGQWDVTTERDGKKESAVFDAVMVCSGHHVYPNLPKKSFPGLNHFKGKCFHSRDYKEPGVFNGKRVLVVGLGNSGCDIATELSRTAEQVMISSRSGSWVMSRVWDNGYPWDMLLVTRFGTFLKNNLPTAISDWLYVKQMNARFKHENYGLMPLNGVLRKEPVFNDELPASILCGIVSVKPNVKEFTETSAIFEDGTIFEGIDCVIFATGYSFAYPFLDESIIKSRNNEIILFKGVFPPLLEKSTIAVIGFVQSLGAAIPTVDLQSRWAAQVIKGTCTLPSMEDMMNDINEKMEKKRKWFGKSETIQTDYIVYMDELSSFIGAKPNIPWLFLTDPKLAMEVYFGPCSPYQFRLVGPGQWPGARNAILTQWDRSLKPMQTRVVGRLQKPCFFFHWLKLFAIPILLIAVFLVLT
- Km [5]: 72.6 µM
- Vmax [5]: 1.44 nmol/min/mg of protein
